Values quoted from earlier work, collected in US4693997A, “Novel pharmaceutical composition” (priority 1982, dated 1987).
Where a name gives a salt, the structure may show the parent alone. Read-outs that look alike come from different tables or passages of the source.

Test system: mucosa in the oesophagus
Settings: oral tablets
[1] = compared with emepronium bromide tablets

| Compound | oesophageal irritation and ulceration [1] | oesophageal irritation and ulceration (Bennett, Lancet 1977, 1, 810) |
| --- | --- | --- |
| CC1c2cccc(O)c2C(=O)C2=C(O)C3(O)C(=O)C(C(N)=O)=C(O)C(N(C)C)C3C(O)C21 (stereo not drawn) [doxycycline hydrochloride] | same type of irritation and ulceration |  |
| CC(C)NCC(O)COc1cccc2ccccc12 (stereo not drawn) [propranolol hydrochloride] | same type of irritation and ulceration |  |
| CC[N+](C)(C)C(C)CC(c1ccccc1)c1ccccc1 (stereo not drawn) [emepronium bromide] |  | severe irritation and ulceration in the oesophagus |
